# Experimental data from ChEMBL document CHEMBL2169853, “Discovery and in vivo evaluation of dual PI3Kβ/δ inhibitors” (J Med Chem, 2012).
# What was measured:
# [1] = molecular target: Phosphatidylinositol 4,5-bisphosphate 3-kinase catalytic subunit gamma isoform (Homo sapiens, UniProt P48736)
# Description: Inhibition of PI3Kgamma by ATP bioluminescence assay
# [2] = molecular target: T1, Phosphatidylinositol 4,5-bisphosphate 3-kinase catalytic subunit beta isoform (Homo sapiens, UniProt P42338)
# Description: Inhibition of PI3Kbeta using phosphatidylinositol-4,5-bisphosphate by ATP bioluminescence assay
# [3] = molecular target: T1, Phosphatidylinositol 4,5-bisphosphate 3-kinase catalytic subunit beta isoform; remark: listed apart in the source
# Description: Inhibition of PI3Kbeta-mediated AKT Ser473 phosphorylation in human MDA-MB-468 cells after 120 mins by meso scale discover assay
# [4] = in vitro; conditions: human, liver microsomes
# Description: Drug metabolism in human liver microsomes at 1 uM after 30 mins
# [5] = physchem; conditions: phosphate buffered saline, pH 7.4
# Description: Solubility of the compound in phosphate buffered saline at pH 7.4
# [6] = physchem; conditions: buffer, pH 7.4
# Description: Lipophilicity, log D of the compound at pH 7.4
# [7] = molecular target: T2, PXR (nuclear receptor subfamily 1 group I member 2) (Homo sapiens, UniProt O75469); assay: in vitro
# T2 sequence (O75469 whole entry): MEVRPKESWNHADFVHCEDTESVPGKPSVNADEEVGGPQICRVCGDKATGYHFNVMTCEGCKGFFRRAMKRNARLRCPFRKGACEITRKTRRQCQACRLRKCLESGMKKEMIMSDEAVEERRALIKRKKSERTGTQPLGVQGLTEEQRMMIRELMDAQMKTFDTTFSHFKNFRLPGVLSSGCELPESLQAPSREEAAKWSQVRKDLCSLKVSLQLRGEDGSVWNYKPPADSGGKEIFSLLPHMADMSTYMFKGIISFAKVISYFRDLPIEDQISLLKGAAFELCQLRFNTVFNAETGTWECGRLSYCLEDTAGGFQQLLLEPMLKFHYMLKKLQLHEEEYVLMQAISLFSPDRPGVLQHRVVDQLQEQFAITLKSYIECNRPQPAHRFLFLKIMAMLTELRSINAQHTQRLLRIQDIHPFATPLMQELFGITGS
# Description: Inhibition of human PXR assessed as activity remaining at 2 uM relative to rifampicin
# [8] = in vitro; conditions: rat, liver microsomes
# Description: Drug metabolism in rat liver microsomes at 1 uM after 30 mins
# [9] = molecular target: T3, Phosphatidylinositol 4,5-bisphosphate 3-kinase catalytic subunit delta isoform (Homo sapiens, UniProt O00329)
# T3 sequence (O00329 whole entry): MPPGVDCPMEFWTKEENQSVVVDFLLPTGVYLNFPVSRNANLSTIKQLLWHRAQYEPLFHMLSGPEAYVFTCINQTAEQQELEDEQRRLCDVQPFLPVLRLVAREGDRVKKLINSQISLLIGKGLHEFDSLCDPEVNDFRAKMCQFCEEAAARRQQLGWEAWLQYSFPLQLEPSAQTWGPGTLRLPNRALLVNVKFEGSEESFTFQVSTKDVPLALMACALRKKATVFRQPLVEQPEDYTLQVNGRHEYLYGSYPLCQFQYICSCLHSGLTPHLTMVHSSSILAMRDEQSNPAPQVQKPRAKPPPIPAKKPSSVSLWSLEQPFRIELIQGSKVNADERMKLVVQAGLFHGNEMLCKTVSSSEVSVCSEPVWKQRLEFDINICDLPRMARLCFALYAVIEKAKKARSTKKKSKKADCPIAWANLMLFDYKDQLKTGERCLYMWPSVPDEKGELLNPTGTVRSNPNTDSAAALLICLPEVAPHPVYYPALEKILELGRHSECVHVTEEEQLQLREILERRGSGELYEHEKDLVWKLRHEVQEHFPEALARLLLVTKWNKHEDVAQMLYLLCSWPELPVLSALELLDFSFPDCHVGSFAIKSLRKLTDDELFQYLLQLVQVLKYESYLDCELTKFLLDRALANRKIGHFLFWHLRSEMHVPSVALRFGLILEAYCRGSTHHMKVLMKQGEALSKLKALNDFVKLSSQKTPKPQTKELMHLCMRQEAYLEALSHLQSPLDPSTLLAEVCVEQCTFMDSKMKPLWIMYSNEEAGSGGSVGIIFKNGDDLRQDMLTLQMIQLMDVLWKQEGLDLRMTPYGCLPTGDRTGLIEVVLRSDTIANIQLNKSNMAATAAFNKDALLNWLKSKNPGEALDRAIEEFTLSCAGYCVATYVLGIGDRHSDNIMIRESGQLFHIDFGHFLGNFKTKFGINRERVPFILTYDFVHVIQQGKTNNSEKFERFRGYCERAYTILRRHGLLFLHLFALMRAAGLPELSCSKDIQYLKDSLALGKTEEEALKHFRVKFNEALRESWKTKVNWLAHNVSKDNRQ
# Description: Inhibition of PI3Kdelta using phosphatidylinositol-4,5-bisphosphate by ATP bioluminescence assay
# [10] = molecular target: Phosphatidylinositol 4,5-bisphosphate 3-kinase catalytic subunit alpha isoform (Homo sapiens, UniProt P42336)
# Description: Inhibition of PI3Kalpha by ATP bioluminescence assay
# [11] = in vivo; conditions: Sprague-Dawley, rat, iv, 0.5 mg/kg
# Description: Half life in Sprague-Dawley rat at 0.5 mg/kg, iv
# [12] = in vivo; conditions: Sprague-Dawley, rat, iv, 0.5 mg/kg; remark: listed apart in the source
# Description: Volume of distribution at steady state in Sprague-Dawley rat at 0.5 mg/kg, iv
# [13] = in vivo; conditions: Sprague-Dawley, rat, iv, 0.5 mg/kg; remark: listed apart in the source
# Description: Clearance in Sprague-Dawley rat at 0.5 mg/kg, iv
# [14] = in vivo; conditions: Sprague-Dawley, rat, po, 2 mg/kg
# [15] = in vivo; conditions: Sprague-Dawley, rat, plasma, po, 2 mg/kg
# T1 sequence (P42338 whole entry, canonical isoform): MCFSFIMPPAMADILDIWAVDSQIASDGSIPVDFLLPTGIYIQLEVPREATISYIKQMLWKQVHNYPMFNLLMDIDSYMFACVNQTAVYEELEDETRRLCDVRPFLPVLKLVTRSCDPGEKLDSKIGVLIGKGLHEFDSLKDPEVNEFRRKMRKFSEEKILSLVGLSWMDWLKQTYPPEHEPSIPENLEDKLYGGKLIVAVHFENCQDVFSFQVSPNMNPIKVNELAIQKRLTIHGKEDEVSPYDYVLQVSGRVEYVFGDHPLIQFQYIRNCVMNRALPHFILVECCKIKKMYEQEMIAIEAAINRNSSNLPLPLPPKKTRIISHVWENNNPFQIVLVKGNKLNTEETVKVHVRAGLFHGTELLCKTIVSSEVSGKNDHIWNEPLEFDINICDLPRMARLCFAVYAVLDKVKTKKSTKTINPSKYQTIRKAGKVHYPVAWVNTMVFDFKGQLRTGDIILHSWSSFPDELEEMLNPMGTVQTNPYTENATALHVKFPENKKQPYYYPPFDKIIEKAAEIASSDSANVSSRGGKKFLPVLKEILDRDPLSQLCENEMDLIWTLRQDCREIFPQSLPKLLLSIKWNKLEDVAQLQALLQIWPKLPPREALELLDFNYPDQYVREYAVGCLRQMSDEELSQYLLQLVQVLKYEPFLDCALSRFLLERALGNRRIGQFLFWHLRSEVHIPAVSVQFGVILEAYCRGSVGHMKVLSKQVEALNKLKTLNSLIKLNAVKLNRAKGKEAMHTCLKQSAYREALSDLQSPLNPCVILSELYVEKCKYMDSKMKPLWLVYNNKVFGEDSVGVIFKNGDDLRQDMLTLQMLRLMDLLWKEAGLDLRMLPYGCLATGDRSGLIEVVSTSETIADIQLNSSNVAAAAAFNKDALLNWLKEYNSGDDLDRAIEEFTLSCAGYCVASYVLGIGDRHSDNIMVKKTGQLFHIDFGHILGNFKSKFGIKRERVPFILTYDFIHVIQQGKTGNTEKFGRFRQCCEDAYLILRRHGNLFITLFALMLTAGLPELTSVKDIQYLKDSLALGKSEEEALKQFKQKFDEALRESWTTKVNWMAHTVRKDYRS
# Sequence of Phosphatidylinositol 4,5-bisphosphate 3-kinase catalytic subunit alpha isoform (P42336 whole entry, canonical isoform): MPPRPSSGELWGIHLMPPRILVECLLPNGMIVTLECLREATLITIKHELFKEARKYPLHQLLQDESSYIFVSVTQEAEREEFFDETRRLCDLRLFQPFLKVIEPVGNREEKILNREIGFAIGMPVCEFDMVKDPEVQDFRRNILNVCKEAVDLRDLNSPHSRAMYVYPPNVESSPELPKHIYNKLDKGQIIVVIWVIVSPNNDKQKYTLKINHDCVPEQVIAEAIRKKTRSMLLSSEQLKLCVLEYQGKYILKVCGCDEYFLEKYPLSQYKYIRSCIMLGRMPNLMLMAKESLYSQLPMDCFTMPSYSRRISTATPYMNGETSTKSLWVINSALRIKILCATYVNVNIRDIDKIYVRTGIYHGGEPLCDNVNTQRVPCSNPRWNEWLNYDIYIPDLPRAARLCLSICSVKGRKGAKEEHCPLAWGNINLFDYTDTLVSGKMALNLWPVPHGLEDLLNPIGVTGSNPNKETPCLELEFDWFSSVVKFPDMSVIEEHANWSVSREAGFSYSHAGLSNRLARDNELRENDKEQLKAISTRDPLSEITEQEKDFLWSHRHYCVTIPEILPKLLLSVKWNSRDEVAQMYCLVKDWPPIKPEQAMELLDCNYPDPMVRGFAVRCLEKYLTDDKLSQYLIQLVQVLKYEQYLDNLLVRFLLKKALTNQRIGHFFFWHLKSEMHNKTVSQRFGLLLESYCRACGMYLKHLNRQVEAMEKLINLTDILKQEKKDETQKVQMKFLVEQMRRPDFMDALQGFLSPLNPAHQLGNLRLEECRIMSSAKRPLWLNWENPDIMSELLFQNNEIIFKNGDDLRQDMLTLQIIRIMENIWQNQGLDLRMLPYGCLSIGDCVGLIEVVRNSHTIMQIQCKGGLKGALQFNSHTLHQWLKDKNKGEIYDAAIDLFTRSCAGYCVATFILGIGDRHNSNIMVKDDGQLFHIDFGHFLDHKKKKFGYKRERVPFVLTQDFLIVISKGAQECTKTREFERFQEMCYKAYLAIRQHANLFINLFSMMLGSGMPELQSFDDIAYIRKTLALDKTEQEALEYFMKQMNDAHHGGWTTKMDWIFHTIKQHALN
# Sequence of Phosphatidylinositol 4,5-bisphosphate 3-kinase catalytic subunit gamma isoform (P48736 whole entry, canonical isoform): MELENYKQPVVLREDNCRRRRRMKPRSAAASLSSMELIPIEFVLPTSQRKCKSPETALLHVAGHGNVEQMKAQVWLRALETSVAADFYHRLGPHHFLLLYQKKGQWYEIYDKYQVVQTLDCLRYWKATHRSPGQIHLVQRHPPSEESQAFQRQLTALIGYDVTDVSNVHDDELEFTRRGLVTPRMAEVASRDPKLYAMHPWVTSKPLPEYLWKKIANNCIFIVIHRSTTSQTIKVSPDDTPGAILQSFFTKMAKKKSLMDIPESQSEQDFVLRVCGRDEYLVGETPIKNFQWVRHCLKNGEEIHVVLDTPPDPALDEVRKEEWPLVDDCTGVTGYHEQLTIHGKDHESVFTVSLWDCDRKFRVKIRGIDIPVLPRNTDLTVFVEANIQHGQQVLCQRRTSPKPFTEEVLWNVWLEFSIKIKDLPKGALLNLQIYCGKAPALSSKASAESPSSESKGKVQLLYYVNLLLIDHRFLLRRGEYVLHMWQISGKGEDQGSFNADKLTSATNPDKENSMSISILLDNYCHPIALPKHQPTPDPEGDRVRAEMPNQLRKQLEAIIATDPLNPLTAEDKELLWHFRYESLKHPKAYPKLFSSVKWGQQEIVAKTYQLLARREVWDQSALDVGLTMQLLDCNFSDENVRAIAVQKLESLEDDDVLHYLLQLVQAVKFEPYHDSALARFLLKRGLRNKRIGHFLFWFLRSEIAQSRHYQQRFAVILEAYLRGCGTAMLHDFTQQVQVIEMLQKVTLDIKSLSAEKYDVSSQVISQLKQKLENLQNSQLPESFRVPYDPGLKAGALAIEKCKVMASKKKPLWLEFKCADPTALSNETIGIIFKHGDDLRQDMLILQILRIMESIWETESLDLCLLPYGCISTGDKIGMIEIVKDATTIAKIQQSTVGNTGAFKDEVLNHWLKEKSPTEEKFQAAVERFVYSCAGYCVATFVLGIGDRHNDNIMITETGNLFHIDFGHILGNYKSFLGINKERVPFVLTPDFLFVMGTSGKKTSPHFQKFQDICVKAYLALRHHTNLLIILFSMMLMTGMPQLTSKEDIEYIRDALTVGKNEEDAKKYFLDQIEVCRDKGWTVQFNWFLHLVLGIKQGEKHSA
SMILES,IC50 [2] [nM],"metabolised at 0.5 h, 1 µM [4] [%]",solubility [5] [µg/mL],activity at 2 µM [7] [%],"metabolised at 0.5 h, 1 µM [8] [%]",IC50 [9] [nM],Ki [1] [nM],Ki [2] [nM],further results
Cc1c(-c2ccccn2)nc2cc(F)ccc2c1N1CC(C)(C)c2ccc(N3CCOCC3)cc21,58,40,7.4,106,34,–,–,–,IC50 [1]: 2010 nM; IC50 [3]: 53 nM; logD [6]: 4.5
Cc1c(-c2ccccn2)nc2cccc(F)c2c1N1CC(C)(C)c2ccc(N3CCOCC3)cc21,720,52,5.2,104,49,72,–,–,–
Cc1nc2ccccc2c(N2CC3(CCOCC3)c3ccc(N4CCOCC4)cc32)c1C,54,70,–,1,71,450,–,–,–
Cc1c(-c2ccccc2)nc2ccccc2c1N1CC2(CCOCC2)c2ccc(N3CCOCC3)cc21,105,62,3.2,103,46,91,–,–,–
Cc1c(-c2ccccn2)nc2cc(F)ccc2c1N1CC2(CCOCC2)c2ccc(N3CCOCC3)cc21,143,64,–,22,13,64,–,–,–
Cc1c(-c2ccccn2)nc2cc(F)ccc2c1N1CC2(CS(=O)(=O)C2)c2ccc(N3CCOCC3)cc21,–,–,–,–,–,–,7340,395,Ki [10]: > 12500 nM
Cc1c(-c2ccccn2)nc2cc(F)ccc2c1N1CC(CO)(CO)c2ccc(N3CCOCC3)cc21,–,–,–,–,–,–,16000,269,Ki [10]: > 125000 nM
Cc1c(-c2ccccn2)nc2cc(F)ccc2c1N1CC(C)(C)c2ccc(-c3ccncc3)cc21,81,–,–,–,–,–,–,–,IC50 [1]: 1400 nM
Cc1c(-c2ccccn2)nc2cc(F)ccc2c1N1CC(C)(C)c2ccc(-c3ccnc(N)n3)cc21,–,–,–,–,–,–,90,54,half-life [11]: 6.1 h; Vd [12]: 7.5 L/kg; clearance [13]: 26.8 mL/min/kg
Cc1cc(-c2ccc3c(c2)N(c2c(C)c(-c4ccccn4)nc4cc(F)ccc24)CC3(C)C)nc(N)n1,–,–,–,–,–,–,364,> 125000,Ki [10]: > 125000 nM
Cc1c(-c2ccccn2)nc2cc(F)ccc2c1N1CC(C)(C)c2ncc(N3CCOCC3)cc21,–,47,11,22,28,–,92,30,Ki [9]: 7 nM; Ki [10]: 1720 nM; IC50 [3]: 51 nM; bioavailability [14]: 47%; AUC [15]: 2 µM·h; half-life [11]: 6.2 h; Vd [12]: 5 L/kg; clearance [13]: 16.2 mL/min/kg
Cc1c(-c2ccccn2)nc2cc(F)ccc2c1N1CC(C)(C)c2ncc(-c3ccnc(N)n3)cc21,–,12,17,65,34,–,28,18,IC50 [3]: 10 nM
Cc1nc2ccccc2c(N2CC(C)(C)c3ccc(N4CCOCC4)cc32)c1C,60,65,1,14,94,362,–,–,IC50 [1]: 18000 nM; IC50 [10]: 41000 nM
Cc1nc2ccc(Cl)cc2c(N2CC(C)(C)c3ccc(N4CCOCC4)cc32)c1C,60,54,1,17,84,–,–,–,–
Cc1c(-c2ccccc2)nc2ccccc2c1N1CC(C)(C)c2ccc(N3CCOCC3)cc21,59,42,2.4,197,57,85,–,–,–
Cc1c(-c2ccccc2F)nc2ccccc2c1N1CC(C)(C)c2ccc(N3CCOCC3)cc21,35,47,1,162,52,47,–,–,–
